# Experimental data as given in patent US11655208B2, “1-carboxy-2-hydroxy-3-iminopropane and extraction method thereof” (Jiangnan University, priority 2020, dated 2023).
# What was measured:
# Type in all cases: in vivo
# male ICR mice [1] = experiment: Open field test; conditions: for Movement speed / Movement time / Stay time in the middle area: mice, gavage for 14 days, within 10 minutes, x ± s
# Method: (§1) 30 SPF-level 4-week-old male ICR (Institute of Cancer Research) mice were adaptively reared for 1 week and then randomly divided into 3 groups with 10 mice in each group. An experimental group and a blank group were given an aqueous solution of the 1-carboxy-2-hydroxy-3-iminopropane and water at a dose of 1.0 g/kg·bw by gavage respectively, and a positive control group was given an aqueous solution of estazolam at a dose of 2 mg/kg·bw by the gavage. After continuous gavage for 14 days, tests were carried out. The tests were carried out around 25° C. in a quiet environment.
# An open field maze of 4 units (each unit 50 cm×50 cm×38 cm) consisting of 4 activity spaces were used in the test, and 4 mice were tested each time. The open field spaces were cleaned with alcohol before the test, and the test was started 30 minutes after a sample group was administered (15 minutes after a positive control group was administered). During the test, tails of the mice were gently grasped, and the mice were placed in the middle of each unit of the open field maze for adaption for 5 minutes. A software start button was clicked to activate software for tracking moving paths of the mice. With an average movement speed, a movement time and a stay time in the middle area within 10 minutes as indexes, data analysis was conducted by using EthoVision XT 11 software. After each test was completed, urine and feces were cleaned, and a bottom and an inner wall of the maze were sprayed with 5-10% ethanol and then wiped with paper to remove an odor left by the mice. Then, a next group of the mice was tested, and influence of the odor and residue on the next group of the mice was avoided.
# male ICR mice [2] = experiment: Direct sleep observation test; conditions: for 12 h sleep duration period: mice, sleep time within 12 hours after the gavage, x ± s
# Method: as §1
# After the open field test was completed, a direct sleep observation test was carried out the next night. 30 minutes after the gavage, a surveillance camera was used for observation, and a sleep time of the mice in each group within 12 hours after the gavage was recorded.
# male ICR mice [3] = experiment: Pentobarbital sodium induced sleep test; design: Sleep duration period: unit not given here
# Method: as §1
# Before the test, a preliminary test was carried out to determine a dose of pentobarbital sodium by intraperitoneal injection. After the intraperitoneal injection, the dose when all mice fell asleep for a moderate time was used as a standard, and the test was carried out with this dose (50 mg/kg·bw). 30 minutes after the last gavage, the mice were given the pentobarbital sodium by intraperitoneal injection to induce sleep. The time from injection of the pentobarbital sodium to disappearance of a righting reflex was recorded as a sleep latency period of the mice. The time from the disappearance of the righting reflex to reappearance of the righting reflex was recorded as a […] of the mice. Whether or not the latency period of each group was shortened and whether or not the sleep time was prolonged were observed.
# [4] = mice, pentobarbital sodium 50 mg/kg·bw i.p. 30 minutes after the last gavage, x ± s
# [5] = pentobarbital sodium induced sleep, vs blank group, P<0.05
SMILES,Movement speed (male ICR mice [1]) [cm/s],Movement time (male ICR mice [1]) [s],Stay time in the middle area (male ICR mice [1]) [%],"effect on stay time in the middle area of the mice (in words) (male ICR mice [1]; vs blank group, P<0.01)","effect on movement speed of the mice (in words) (male ICR mice [1]; vs blank group, P<0.05)","effect on movement time of the mice (in words) (male ICR mice [1]; vs blank group, P<0.05)",12 h sleep duration period (male ICR mice [2]) [min],"total sleep duration period within 12 hours (in words) (male ICR mice [2]; vs blank group, P<0.05)",Latency period (male ICR mice [3]; [4]) [s],Sleep duration period (male ICR mice [3]; [4]),sleep duration period prolonged by (male ICR mice [3]; [5]) [%],sleep latency period shortened by (male ICR mice [3]; [5]) [%]
N=CC(O)CC(=O)O (centres unmarked) [1-carboxy-2-hydroxy-3-iminopropane],4.66 ± 1.14,333.76 ± 56.84,17.81 ± 5.14,significantly increased,significantly reduced,significantly reduced,374.33 ± 24.48,longer than that of the blank group,3.60 ± 0.368,34.73 ± 12.71,61.49,24.62
"Clc1ccc2c(c1)C(c1ccccc1)=NCc1nncn1-2 [estazolam, reference compound]",4.60 ± 0.96,325.85 ± 51.64,20.63 ± 9.01,,,,404.10 ± 34.03,,2.81 ± 0.57,,,
